Experimental data as given in patent US11414379B2, “SPAK kinase inhibitors as neuroprotective agents” (United States Government as represented by the Department …, priority 2018, dated 2022).

Legend:
[1] = tested on: pSPAK/pOSR1 and pNKCC1; assay: Phosphorylation in ischemic mouse brains, immunoblot; format: in vivo
Description: (§1) The membranes were incubated for 30 min with TBST (Tris-buffered saline, 0.05% Tween-20) containing 5% (w/v) skim milk. The blots were then washed six times with TBST and incubated for 1 hour at room temperature with secondary HRP-conjugated antibodies diluted 5000-fold in 5% (w/v) skim milk in TBST. After repeating the washing steps, signals were detected with enhanced chemiluminescence reagent. Immunoblots were developed using a film automatic processor (SRX-101; Konica Minolta Medical) and films were scanned at 600 dpi (PowerLook 1000; UMAX). Figures were generated using Photoshop/Illustrator (Adobe). The densities of bands were measured with ImageJ. For phospho-antibody immunoprecipitation, KCC isoforms were immunoprecipitated from indicated cell extracts. 2 mg of the indicated clarified cell extract were mixed with 15 μg of the indicated phospho-specific KCC antibody conjugated to 15 μl of protein-G-Sepharose, in the added presence of […] of the dephosphorylated form of the phosphopeptide antigen, and incubated 2 hours at 4° C. with gentle shaking. Immunoprecipitates were washed three times with 1 mL of lysis buffer containing 0.15 M NaCl and twice with 1 ml of buffer A. Bound proteins were eluted with 1×LDS sample buffer.
(§2) Brain homogenates were prepared as previously described (Bhuiyan et al. (2017) Journal of cerebral blood flow and metabolism: official journal of the International Society of Cerebral Blood Flow and Metabolism 37: 2780-2794). Mice were anesthetized with 5% isoflurane vaporized in N20 and 02 (3:2), then decapitated. […] The pellet was re-suspended in the homogenization buffer. Protein content in both membrane and cytosolic fractions was determined by the standard bicinchoninic acid method.
(§3) Referring to FIG. 14A, representative immunoblots (IB) of phospho-SPAK/OSR1 (pSPAK/pOSR1), phospho-KCC3 and phospho-NKCC1 (pNKCC1) in mouse brains studied 24 hrs post-reperfusion after ischemic stroke are shown. Membrane protein fractions were prepared from contralateral (CL) and ipsilateral (IL) cerebral hemispheres. Vehicle (Veh, DMSO) or ZT-1a (5 mg/kg) was administered as described in FIG. 11A, FIG. 11B, and FIG. 13. Na^+-K^+ ATPase α-subunit and GAPDH served, respectively, as loading controls for membrane and cytosol fractions.
(§4) Referring to FIG. 14B, densitometry analyses of immunoblots (similar to those in panel A) of pSPAK/pOSR1, pNKCC1, tSPAK/tOSR1, and tNKCC1 in mouse brains studied 24 hrs reperfusion after tMCAO are shown. Data are means±SEM, n=5 per group (male 3, female 2). *p<0.05.

[2] = tested on: pKCC3; assay: as above; format: in vivo
Description: as §1, §2, §3, §4

[3] = tested on: pSPAK; assay: IVH-induced phosphorylation in rat choroid plexus, ICV delivery; format: in vivo; settings: 48 hrs post-IVH, n=3
[4] = tested on: SPAK pSer373; assay: Phosphorylation immunoblot in KCC2-transfected HEK293 cells; format: cell-based, human; settings: concentration inhibiting phosphorylation
Description: (§5) HEK293 (human embryonic kidney 293) cells were cultured on 10-cm-diameter dishes in DMEM supplemented with 10% (v/v) foetal bovine serum, 2 mM L-glutamine, 100 U/ml penicillin and 0.1 mg/ml streptomycin. HEK293 cells were transfected with a mixture of 20 μl of 1 mg/ml polyethylenimine (Polysciences) and 5-10 μg of plasmid DNA as described previously (Durocher et al., 2002). 36 hours post-transfection cells were stimulated with either control isotonic or hypotonic medium for a period of 30 minutes. Cells were lysed in 0.3 mL of ice-cold lysis buffer/dish, lysates were clarified by centrifugation at 4° C. for 15 minutes at 26,000 g and the supernatant aliquots were frozen in liquid nitrogen and stored at −20° C. Protein concentrations were determined using the Bradford method. Cells were treated with the indicated concentrations of the SPAK/OSR1 inhibitors. […] Hypotonic low chloride buffer was 67.5 mM sodium-gluconate, 2.5 mM potassium-gluconate, 0.25 mM CaCl2), 0.25 mM MgCl2, 0.5 mM Na2HPO4, 0.5 mM Na2SO4 and 7.5 mM HEPES (pH 7.5).
as §1
(§6) HEK293 cells were transfected with a DNA construct encoding wild type N-terminally FLAG-tagged KCC2. 36 hrs post-transfection, cells were exposed 30 min to either control isotonic or hypotonic low [C1^−] conditions, then treated in the same conditions for an additional 30 min with the indicated inhibitors at the concentrations noted. Cell lysates were subjected to SDS-PAGE and Western blotting with the indicated antibodies. See FIG. 3 for Western blot quantitation.
(§7) Referring to FIG. 2, concentration-response experiments testing effects of Closantel analogs on phosphorylation of KCC2 Thr906/Thr1007 are shown. HEK293 cells were transfected with DNA construct encoding wild type N-terminally FLAG-tagged KCC2. 36 h post-transfection, cells were exposed 30 min to either control isotonic conditions or hypotonic low Cl^− conditions, then treated in the same conditions with the specified inhibitors (1b, 1c, 1f, 1d, 1h, and 1g, respectively) at the indicated concentrations for an additional 30 min. Lysates were subjected to SDS-PAGE and Western blotting with the indicated antibodies.
(§8) Referring to FIG. 3, HEK293 cells were transfected with the DNA construct encoding wild type N-terminally FLAG-tagged KCC2. 36 h post-transfection, cells were exposed 30 min to either control isotonic or hypotonic low Cl^− conditions, then treated in the same conditions with the specified inhibitors at the indicated concen-trations for an additional 30 min. Lysates were subjected to SDS-PAGE and Western blotting with the indicated antibodies. Closantel, STOCK1S-14279 and STOCK1S-50699 were used as reference compounds.

[5] = tested on: KCC2 pThr1007; assay: as above; format: cell-based, human; settings: concentration inhibiting phosphorylation
Description: as §5, §1, §6, §7, §8

[6] = tested on: KCC2 pThr906; assay: as above; format: cell-based, human; settings: concentration inhibiting phosphorylation
Description: as §5, §1, §6, §7, §8

[7] = compared to vehicle-control mice
[8] = ipsilateral cortex membrane fractions, 24 hrs reperfusion, 5 mg/kg

## Cc1cc(C(C#N)c2ccc(Cl)cc2)c(Cl)cc1NC(=O)c1cc(Cl)ccc1O (centres unmarked) [ZT-1a, 5-chloro-N-(5-chloro-4-((4-chlorophenyl)(cyano)methyl)-2-methylphenyl)-2-hydroxy-benzamide]
[1]; [7]
  reduction of ischemia-induced elevations of pSPAK and pNKCC1: 55-65%
[1]; [8]
  effect on ischemia-induced increases of pSPAK/pOSR1 and pNKCC1: prevented ischemia-induced increases
[2]; [7]
  reduction of ischemia-induced elevations of pKCC3: 30%
[2]; [8]
  effect on ischemia-induced increases of pKCC3: prevented ischemia-induced increases
[3]
  reduction of IVH-induced expression of pSPAK: 55±3.6%
[4]; hypotonic low Cl- conditions
  SPAK pSer373 (μM) hypo: 3 μM
[4]; isotonic conditions
  SPAK pSer373 (μM) Iso: 1 μM
[5]; hypotonic low Cl- conditions
  KCC2 pThr1007 (μM) hypo: 3 μM
[5]; isotonic conditions
  KCC2 pThr1007 (μM) Iso: 1 μM
[6]; hypotonic low Cl- conditions
  KCC2 pThr906 (μM) hypo: 3, 3 μM
[6]; isotonic conditions
  KCC2 pThr906 (μM) Iso: 3, 3 μM
